{
  "source": "paper PMC8340127",
  "about": "(iScience, 2021)",
  "key": {"[1]": {"target": "T1, Aβ42 (Homo sapiens, UniProt P05067)", "T1 construct": "Recombinant Amyloid-β1-42 (Aβ42) wild type peptide; purchased rPeptide, Watkinsville, USA A-1163-2", "T1 sequence (P05067 672-713)": "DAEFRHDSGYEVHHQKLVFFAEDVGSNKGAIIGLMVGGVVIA", "format": "biochemical", "details": "pH 8"}, "[2]": {"target": "T1, Aβ42", "format": "biochemical", "details": "pH 7.8"}, "[3]": {"format": "biochemical", "details": "pH 7.4"}, "[4]": {"target": "T1, Aβ42", "format": "binding"}, "[5]": {"target": "T1, Aβ42", "format": "binding", "details": "pH 8.3"}, "[6]": {"target": "T1, Aβ42", "format": "biochemical", "details": "pH 7.3"}, "[7]": {"target": "T1, Aβ42", "format": "biochemical"}, "[8]": {"format": "biochemical", "details": "pH 7.4", "remark": "listed apart in the source"}, "[9]": {"target": "T2, 15N-Aβ40 (Homo sapiens, UniProt P05067)", "T2 construct": "Uniformly isotopically ^15N -labelled Amyloid-β1-40 (Aβ40); purchased AlexoTech AB, Umeå, Sweden AB-100-05", "T2 sequence (P05067 672-711)": "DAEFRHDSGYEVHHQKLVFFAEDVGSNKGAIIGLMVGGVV", "experiment": "biochemical", "format": "binding"}, "[10]": {"system": "neuroblastoma cells", "details": "cited from earlier work"}, "[11]": {"target": "T3, Aβ40 (Homo sapiens, UniProt P05067)", "T3 construct": "Recombinant Amyloid-β1-40 (Aβ40) wild type peptide; purchased AlexoTech AB, Umeå, Sweden AB-100-10", "T3 sequence (P05067 672-711)": "as above", "format": "biochemical"}, "[12]": {"target": "T3, Aβ40", "format": "biochemical", "remark": "listed apart in the source"}, "[13]": {"target": "T2, 15N-Aβ40", "format": "biochemical", "details": "pH 7.35"}, "[14]": {"details": "pH 7.4"}},
  "note": "Like-named read-outs stand apart in the source and are kept apart here. Residues, ends and D or L forms follow the SMILES beside them.",
  "data": [
    {"compound": "DAEFR5HDSGY10EVHHQ15KLVFF20AEDVG25SNKGA30IIGLM35VGGVV40IA [Aβ42, Recombinant Amyloid-β1-42 (Aβ42) wild type peptide]", "values": [
      {"measurement": "aggregation half-time τ½, Aβ42 alone", "setting": "[1]", "value": "about 4 h"},
      {"measurement": "aggregation half-time τ½, Aβ42 alone + NaF", "setting": "[1]", "value": "approximately 2.5 h"},
      {"measurement": "effect of 10% pre-formed seeds on Aβ42 amyloid formation, no NCAM-PrP", "setting": "[2]", "value": "the amyloid formation was enhanced"},
      {"measurement": "calcein leakage by monomeric Aβ42", "setting": "[3]", "value": "around 10%"},
      {"measurement": "share of tetramer in the Aβ42 oligomeric population", "setting": "[4]", "value": "about 50%"},
      {"measurement": "oligomeric state of Aβ42, aqueous", "setting": "[5]", "value": "mostly monomeric peptide with a rich population of small and heterogeneous oligomers"},
      {"measurement": "time at which normalized CD signals at 198 and 220 nm meet, Aβ42 alone", "setting": "[6]", "value": "approximately one"},
      {"measurement": "β-sheet formation of Aβ42 alone", "setting": "[6]", "value": "transitioned into a mostly β-sheet state within 4 h"},
      {"measurement": "fibril diameter by AFM, Aβ42 alone", "setting": "[7]", "value": "approximately 10 nm"},
      {"measurement": "calcein leakage by monomeric Aβ42", "setting": "[8]", "value": "around 10%"}
    ]},
    {"compound": "CC[C@H](C)[C@H](NC(=O)[C@H](CC(C)C)NC(=O)[C@H](CC(=O)O)NC(=O)[C@H](CCCCN)NC(=O)[C@@H](NC(=O)[C@H](CCCNC(=N)N)NC(=O)[C@H](CC(C)C)NC(=O)[C@@H](N)CCSC)[C@@H](C)O)C(=O)N[C@@H](Cc1c[nH]c2ccccc12)C(=O)N[C@H](C(=O)N[C@@H](CC(C)C)C(=O)N[C@@H](Cc1ccccc1)C(=O)N[C@@H](Cc1ccccc1)C(=O)N[C@@H](CC(C)C)C(=O)NCC(=O)N[C@H](C(=O)N[C@@H](C)C(=O)N[C@H](C(=O)N[C@@H](CO)C(=O)N[C@@H](CCCCN)C(=O)N[C@@H](CCCCN)C(=O)N[C@@H](CCCNC(=N)N)C(=O)N1CCC[C@H]1C(=O)N[C@@H](CCCCN)C(=O)N1CCC[C@H]1C(N)=O)C(C)C)[C@@H](C)O)[C@@H](C)O", "note": "[NCAM-PrP] (H-MLRTKDLIWTLFFLGTAVSKKRPKP-NH2)", "values": [
      {"measurement": "Kd", "setting": "[9]", "value": "~160", "unit": "µM"},
      {"measurement": "effect on Aβ-induced cytotoxicity in cells", "setting": "[10]", "value": "attenuates Aβ-induced cytotoxicity in cells"},
      {"measurement": "toxicity", "setting": "[10]", "value": "not toxic at the concentrations studied"}
    ]},
    {"compound": "Aβ40: Recombinant Amyloid-β1-40 (Aβ40) wild type peptide", "values": [
      {"measurement": "aggregation half-time τ½, Aβ40 alone + NaF", "setting": "[11]", "value": 2, "unit": "h"},
      {"measurement": "aggregation half-time τ½, Aβ40 alone", "setting": "[11]; pH 7.3", "value": "approximately 6 h"},
      {"measurement": "secondary structure by FTIR", "setting": "[12]", "value": "both random coil and β-sheet conformations"}
    ]},
    {"compound": "Aβ: Amyloid-β (Aβ) peptide, 40 or 42 residues long; in b38 15N-Aβ40", "values": [
      {"measurement": "aggregation of Aβ40 alone (HSQC signal intensity)", "setting": "[13]", "value": "started to aggregate during the incubation"},
      {"measurement": "secondary structure in SDS micelles", "setting": "[14]", "value": "α-helical secondary structures"}
    ]}
  ]
}
